pEC50, pIC50: −log10 of the molar value. The source made the active and inactive calls. The rule behind the calls is not given here. Positions of bridges follow the written chain, without caps; N, C: chain ends. Non-standard residues stand in square brackets, D forms with d. Residues, ends and D or L forms follow the SMILES beside them. *: point of attachment. NH(3,5-(CF3)2-benzyl) = FC(F)(F)c1cc(CN*)cc(C(F)(F)F)c1; Nle = CCCC[C@H](N)C(=O)O

Series [1] concerns the target Mu-type opioid receptor (Cavia porcellus, UniProt P97266). Description: Agonist activity at mu opioid receptor in guinea pig ileum assessed as inhibition of electrically-stimulated contraction. In kind it is functional, tissue-based.
Series [2] concerns the target Delta-type opioid receptor (Mus musculus, UniProt P32300). Description: Agonist activity at delta opioid receptor in mouse vas deferens assessed as inhibition of electrically-stimulated contraction. In kind it is functional, tissue-based.
In series [3] the target is T1, Mu-type opioid receptor (Rattus norvegicus, UniProt P33535). Description: Displacement of [3H]DAMGO from rat mu opioid receptor expressed in HN9.10 cells. The format is cell-based. (In general: In a radioligand displacement assay an active substance lowers the binding of a labelled ligand.)
For series [4], the target named is Substance-P receptor (Rattus norvegicus, UniProt P14600). Description: Displacement of [3H]substance P from rat NK1 receptor expressed in CHO cell membranes. Also on record: species or system Membrane.
Series [5] has as its target Mu-type opioid receptor (Cavia porcellus) (UniProt P97266). Description: Agonist activity at mu opioid receptor in guinea pig ileum assessed as inhibition of electrically-stimulated contraction at 1 uM. In kind it is functional, tissue-based.
Series [6] has the same target. In words: Antagonist activity at mu opioid receptor in guinea pig ileum assessed as effect on electrically-stimulated contraction at 1 uM. The format is functional, tissue-based.
The target in series [7] is T2, Delta-type opioid receptor (Homo sapiens, UniProt P41143). In words: Displacement of [3H]DPDPE from human delta opioid receptor expressed in HN9.10 cells. The format is cell-based.
Series [8] deals with T1, Mu-type opioid receptor. In words: Agonist activity at rat mu opioid receptor expressed in HN9.10 cells assessed as stimulation of [35S]GTPgammaS binding. The format is functional, cell-based. Background: GTPγS is a poorly hydrolysed GTP analogue; its binding reports G protein activation.
Series [9] in a line: Half life in rat plasma at 37 degC. In kind it is ADME, cell-free.
The target in series [10] is T2, Delta-type opioid receptor. In words: Agonist activity at human delta opioid receptor expressed in HN9.10 cells assessed as stimulation of [35S]GTPgammaS binding relative to untreated basal control. In kind it is functional, cell-based.
For series [11], the target named is T2, Delta-type opioid receptor. In words: Agonist activity at human delta opioid receptor expressed in HN9.10 cells assessed as stimulation of [35S]GTPgammaS binding. In kind it is functional, cell-based.
The target of series [12] is Substance-P receptor (Cavia porcellus) (UniProt P30547). To be noted: Ileum.
Description: Antagonist activity at NK1 receptor in guinea pig ileum assessed as inhibition of substance P-induced muscle contraction in presence of naloxone
The target in series [13] is Substance-P receptor (Homo sapiens, UniProt P25103). Description: Displacement of [3H]substance P from human NK1 receptor expressed in CHO cell membranes.
The target in series [14] is Mu-type opioid receptor (Rattus norvegicus) (UniProt P33535). Description: Agonist activity at rat mu opioid receptor expressed in HN9.10 cells assessed as stimulation of [35S]GTPgammaS binding relative to untreated basal control. The format is functional, cell-based.
Series [15] can be described thus: Metabolic stability in rat plasma assessed as parent compound remaining at 37 degC after 24 hrs. To be noted: read-out: Stability. In kind it is ADME, cell-free.

T2 sequence (P41143 whole entry): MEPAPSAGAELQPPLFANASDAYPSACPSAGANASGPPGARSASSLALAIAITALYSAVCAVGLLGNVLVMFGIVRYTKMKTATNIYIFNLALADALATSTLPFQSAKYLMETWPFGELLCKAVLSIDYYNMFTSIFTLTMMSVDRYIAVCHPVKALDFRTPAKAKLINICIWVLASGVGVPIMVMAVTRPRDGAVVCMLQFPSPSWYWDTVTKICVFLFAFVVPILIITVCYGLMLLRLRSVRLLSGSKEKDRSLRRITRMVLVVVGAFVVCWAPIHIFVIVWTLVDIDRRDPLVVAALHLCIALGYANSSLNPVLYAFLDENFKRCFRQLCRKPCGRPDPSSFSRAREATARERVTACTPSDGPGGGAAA
Sequence of Mu-type opioid receptor (Cavia porcellus) (P97266 whole entry): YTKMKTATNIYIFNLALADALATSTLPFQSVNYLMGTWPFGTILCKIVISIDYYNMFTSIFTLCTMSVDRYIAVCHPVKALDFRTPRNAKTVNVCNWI
Sequence of Substance-P receptor (Rattus norvegicus, UniProt P14600) (P14600 whole entry): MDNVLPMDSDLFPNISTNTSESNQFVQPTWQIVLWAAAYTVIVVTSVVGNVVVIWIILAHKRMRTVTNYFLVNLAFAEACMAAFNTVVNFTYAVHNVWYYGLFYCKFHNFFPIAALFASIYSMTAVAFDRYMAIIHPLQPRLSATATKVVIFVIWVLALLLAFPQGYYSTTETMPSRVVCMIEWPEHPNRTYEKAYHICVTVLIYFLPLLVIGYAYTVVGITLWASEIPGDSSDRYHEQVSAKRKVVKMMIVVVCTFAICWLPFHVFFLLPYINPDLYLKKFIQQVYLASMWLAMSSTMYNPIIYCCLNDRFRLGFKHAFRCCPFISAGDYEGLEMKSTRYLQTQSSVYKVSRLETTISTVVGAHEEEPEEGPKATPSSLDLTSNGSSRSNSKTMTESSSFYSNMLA
T1 sequence (P33535 whole entry): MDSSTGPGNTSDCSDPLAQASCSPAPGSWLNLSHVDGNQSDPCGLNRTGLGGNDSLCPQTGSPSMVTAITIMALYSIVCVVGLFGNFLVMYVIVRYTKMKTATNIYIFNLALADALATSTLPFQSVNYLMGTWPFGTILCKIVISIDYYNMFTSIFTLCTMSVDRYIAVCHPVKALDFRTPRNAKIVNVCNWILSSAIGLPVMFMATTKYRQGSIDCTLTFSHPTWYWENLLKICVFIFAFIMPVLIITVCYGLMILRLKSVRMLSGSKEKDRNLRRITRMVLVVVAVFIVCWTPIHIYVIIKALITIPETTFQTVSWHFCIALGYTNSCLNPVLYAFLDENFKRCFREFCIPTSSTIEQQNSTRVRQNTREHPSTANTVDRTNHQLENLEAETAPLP
Sequence of Mu-type opioid receptor (Cavia porcellus, UniProt P97266) (P97266 whole entry): as the sequence (P97266 whole entry) above
Sequence of Substance-P receptor (Cavia porcellus) (P30547 whole entry): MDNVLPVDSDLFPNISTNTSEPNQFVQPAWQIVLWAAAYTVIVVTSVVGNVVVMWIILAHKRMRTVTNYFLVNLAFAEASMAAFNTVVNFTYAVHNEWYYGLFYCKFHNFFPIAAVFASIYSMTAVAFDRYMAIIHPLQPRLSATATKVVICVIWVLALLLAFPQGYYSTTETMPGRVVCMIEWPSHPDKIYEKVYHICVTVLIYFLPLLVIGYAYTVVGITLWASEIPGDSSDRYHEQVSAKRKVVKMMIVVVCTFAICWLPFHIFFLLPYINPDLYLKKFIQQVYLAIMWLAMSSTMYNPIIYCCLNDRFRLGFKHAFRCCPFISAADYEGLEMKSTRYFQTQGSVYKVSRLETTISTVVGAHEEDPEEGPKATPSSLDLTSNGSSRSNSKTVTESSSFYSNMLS
Sequence of Substance-P receptor (Homo sapiens, UniProt P25103) (P25103 whole entry): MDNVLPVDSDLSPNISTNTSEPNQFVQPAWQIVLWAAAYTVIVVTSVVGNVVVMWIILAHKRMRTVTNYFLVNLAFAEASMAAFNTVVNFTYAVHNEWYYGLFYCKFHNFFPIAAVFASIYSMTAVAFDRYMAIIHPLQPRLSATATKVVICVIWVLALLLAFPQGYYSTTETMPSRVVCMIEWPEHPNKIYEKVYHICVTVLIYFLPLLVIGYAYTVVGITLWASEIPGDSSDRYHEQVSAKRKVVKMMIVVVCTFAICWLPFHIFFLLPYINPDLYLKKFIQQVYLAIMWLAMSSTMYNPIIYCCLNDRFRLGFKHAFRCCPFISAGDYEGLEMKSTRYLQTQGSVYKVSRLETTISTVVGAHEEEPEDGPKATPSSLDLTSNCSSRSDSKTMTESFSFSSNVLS
Sequence of Mu-type opioid receptor (Rattus norvegicus) (P33535 whole entry): as the sequence (P33535 whole entry) above
Sequence of Delta-type opioid receptor (Mus musculus, UniProt P32300) (P32300 whole entry): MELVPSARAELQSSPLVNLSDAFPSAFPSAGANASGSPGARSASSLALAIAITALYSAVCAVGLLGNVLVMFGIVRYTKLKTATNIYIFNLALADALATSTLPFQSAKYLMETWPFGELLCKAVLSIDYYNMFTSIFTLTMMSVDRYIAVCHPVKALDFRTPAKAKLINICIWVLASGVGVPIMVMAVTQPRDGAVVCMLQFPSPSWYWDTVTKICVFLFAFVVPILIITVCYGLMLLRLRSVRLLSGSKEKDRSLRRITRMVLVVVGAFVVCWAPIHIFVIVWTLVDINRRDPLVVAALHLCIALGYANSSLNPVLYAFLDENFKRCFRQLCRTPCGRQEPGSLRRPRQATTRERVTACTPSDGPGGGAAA

`CSCC[C@H](NC(=O)[C@H](Cc1ccccc1)NC(=O)CNC(=O)[C@@H](C)NC(=O)[C@@H](N)Cc1ccc(O)cc1)C(N)=O`: the pIC50 (as a rule, the IC50 on a negative log10 scale, so that one unit is a factor of ten) in series [1] is 7.35; in series [2], 7.44.
Regarding `CC(C)C[C@H](NC(=O)[C@@H]1CCCN1C(=O)[C@@H]1CSSC[C@@H](NC(=O)[C@@H](N)Cc2ccc(O)cc2)C(=O)NCC(=O)N[C@@H](Cc2ccccc2)C(=O)N1)C(=O)N[C@@H](Cc1c[nH]c2ccccc12)C(=O)NCc1cc(C(F)(F)F)cc(C(F)(F)F)c1`, the pIC50 in series [3] is 6.37; in series [4], 5.75; in series [7], 7.65. Further, the inhibition (usually the drop in the measured response relative to a control, in per cent) in series [5] came out at 10%. Moreover, in series [6], the result was Active.
With `CC(C)C[C@H](NC(=O)[C@@H]1CCCN1C(=O)[C@H]1CSSC[C@@H](NC(=O)[C@@H](N)Cc2ccc(O)cc2)C(=O)NCC(=O)N[C@@H](Cc2ccccc2)C(=O)N1)C(=O)N[C@@H](Cc1c[nH]c2ccccc12)C(=O)NCc1cc(C(F)(F)F)cc(C(F)(F)F)c1`, the results for the pIC50 in series [3], in series [4] and in [7] were 6.94, 6.86 and 7.81, respectively.
In the case of `CCCC[C@@H]1NC(=O)[C@H](Cc2ccccc2)NC(=O)CNC(=O)[C@H](NC(=O)[C@@H](N)Cc2ccc(O)cc2)CSSC[C@@H](C(=O)N[C@@H](Cc2c[nH]c3ccccc23)C(=O)NCc2cc(C(F)(F)F)cc(C(F)(F)F)c2)NC(=O)[C@@H]2CCCN2C1=O` (H-Y[dC]GF[Nle]PCW-{NH(3,5-(CF3)2-benzyl)}; disulfide 2-7), in series [8], the negative-log EC50 (pEC50) (commonly the negative decadic logarithm of the EC50, by convention in mol/L) was 7.44. Also, the half-life (usually how long it takes for the measured level to halve) in series [9] was above 6 h. In addition, the pIC50 in series [3] is 6.78; in [4], 7.02; in series [1], 6.00; in series [13] it was 9.73; in series [7] it was 8.57. Also, the results for the Emax in series [10] and in [14] were 11% and 36%, respectively. Also, in series [11] (read-out: pEC50 (converted)), the EC50 is 0.0174 nM. This compound also yielded a Ke in series [12] of 2.2 nM.
Turning to `CCCC[C@@H]1NC(=O)[C@H](Cc2ccccc2)NC(=O)CNC(=O)[C@H](NC(=O)[C@@H](N)Cc2ccc(O)cc2)CSSC[C@H](C(=O)N[C@@H](Cc2c[nH]c3ccccc23)C(=O)NCc2cc(C(F)(F)F)cc(C(F)(F)F)c2)NC(=O)[C@@H]2CCCN2C1=O` (H-Y[dC]GF[Nle]P[dC]W-{NH(3,5-(CF3)2-benzyl)}; disulfide 2-7), the pEC50 in series [8] is 7.66; in series [11] (read-out: EC50), 7.89. The compound further registered a half-life in [9] above 6 h. Besides, the pIC50 was 6.50 in series [3], 7.65 in [4], 9.31 in series [13] and 6.93 in series [7]. Moreover, the Emax (commonly the greatest response seen or fitted, relative to the assay's reference) in series [10] worked out at 110%; in [14], 9%. Moreover, the Ke in series [12] was found to be 12 nM. For the same compound, in series [5], the inhibition was 3%. In addition, the result in [6] was Active. The remaining at 24 h in series [15] was 70%.

For the origin of these results see ChEMBL document CHEMBL1152616, “The biological activity and metabolic stability of peptidic bifunctional compounds that are opioid receptor agonists and neurokinin-1 receptor antagonists with a cystine moiety” (Bioorg Med Chem, 2009).
